In general, inhibition refers to the drop in the measured response relative to a control, in per cent. Read a high inhibition as a response far below the control.

SMILES strings stand for the structures.

Experiment [1] in a line: Activity at concentration of 125 uM relative to HexPS for 5 min. Type of experiment: functional.
The nature of experiment [2]: Activity at concentration of 250 uM relative to HexPS for 15 min. The experiment is classed as functional.
Experiment [3] has as its system Geobacillus stearothermophilus. Description: Percent inhibition against prenyltransferases of Undecaprenyl pyrophosphate synthetase (UPS) at concentration of 16 uM.
Experiment [4] deals with Geobacillus stearothermophilus. The experiment is described as follows: Percent inhibition against prenyltransferases of Undecaprenyl pyrophosphate synthetase (UPS) at concentration of 32 uM.
The test system of experiment [5] is Micrococcus luteus. The experiment is described as follows: Percent inhibition against prenyltransferases of hexaprenyl diphosphate synthase (Hex PS) at concentration of 250 uM.
Experiment [6] can be described thus: Activity as substrate for Hex PS relative to control. Type of experiment: functional.
Experiment [7] relates to Geobacillus stearothermophilus. The experiment is described as follows: Percent inhibition against prenyltransferases of Undecaprenyl pyrophosphate synthetase (UPS) at concentration of 125 uM.
The test system of experiment [8] is Micrococcus luteus. The experiment is described as follows: Percent inhibition against prenyltransferases of hexaprenyl diphosphate synthase (Hex PS) at concentration of 125 uM.
The subject of experiment [9] is Farnesyl pyrophosphate synthase (Geobacillus stearothermophilus). Description: Percent inhibition against prenyltransferases of farnesyl diphosphate synthase (FPS) at concentration of 125 uM.
Experiment [10] in a line: Activity at concentration of 125 uM relative to HexPS for 15 min. Type of experiment: functional.
Experiment [11] is described as follows: Activity at concentration of 714 uM relative to FPS for 30 min. The experiment is classed as functional.
Experiment [12] in a line: Activity as substrate for FPS relative to control. Type of experiment: functional.
Experiment [13] is described as follows: Activity at concentration of 250 uM relative to HexPS for 5 min. Type of experiment: functional.
Experiment [14] is described as follows: Activity as substrate for UPS relative to control. The experiment is classed as functional.
Experiment [15] can be described thus: Activity at concentration of 1428 uM relative to FPS for 30 min. Type of experiment: functional.
The nature of experiment [16]: Activity at concentration of 357 uM relative to FPS for 120 min. Type of experiment: functional.
Experiment [17] is described as follows: Activity at concentration of 357 uM relative to FPS for 60 min. Type of experiment: functional.
The test system of experiment [18] is Micrococcus luteus. Description: Percent inhibition against prenyltransferases of hexaprenyl diphosphate synthase (Hex PS) at concentration of 50 uM.
The subject of experiment [19] is Farnesyl pyrophosphate synthase (Geobacillus stearothermophilus). The experiment is described as follows: Percent inhibition against prenyltransferases of farnesyl diphosphate synthase (FPS) at concentration of 250 uM.
Experiment [20] in a line: Activity at concentration of 357 uM relative to FPS for 30 min. Type of experiment: functional.
For experiment [21], the system named is Farnesyl pyrophosphate synthase (Geobacillus stearothermophilus). Description: Percent inhibition against prenyltransferases of farnesyl diphosphate synthase (FPS) at concentration of 50 uM.
Experiment [22] has the same test system. The experiment is described as follows: Percent inhibition against farnesyl diphosphate synthase (FPS) at concentration of 250 uM.

Regarding `C/C(=C\COP(=O)(O)OP(=O)(O)O)CC/C=C(\C)COc1cccc(C(=O)c2ccccc2)c1`, the Relative activity in experiment [1] turned out to be 32.5; in experiment [2], 1.9; in experiment [6], 21.6; in experiment [10], 10.8; in experiment [11], 61.2; in experiment [12], 1.83. For the same compound, the Relative activity in [13] is 5.5; in experiment [14], 55.7; in experiment [15] it was 75.9; in [16], 37; in experiment [17], 66.6; in [20] it was 62.2. Further, the inhibition stood at 38% in experiment [3]; 58% in [4]; 80.5% in the experiment on Micrococcus luteus [5]; 63% in experiment [7]; 37% in the experiment with Micrococcus luteus [8]; 94.9% in experiment [9]. Besides, the inhibition in the experiment with Micrococcus luteus [18] amounted to 9.2%; in [19] it was 96.1%; in experiment [21], 86%.
As for `C/C(=C\COP(=O)(O)OP(=O)(O)O)CC/C=C(\C)COc1ccc(C(=O)c2ccccc2)cc1`, the Relative activity is 30.7 in [1]; 4.3 in experiment [2]; 46.4 in experiment [6]; 9.2 in [10]; 64.4 in experiment [11]; 0.78 in experiment [12]. Besides, the Relative activity in [13] stood at 9.8; in experiment [14], 49.1; in experiment [15] it was 36.2; in experiment [16], 17; in [17] it was 48.1; in [20] it was 67.3. The inhibition turned out to be 29% in [3]; 53% in experiment [4]; 86.4% in the experiment on Micrococcus luteus [5]; 63% in experiment [7]; 49.5% with Micrococcus luteus [8]; 94.4% in [9]. The inhibition came to 14.4% with Micrococcus luteus [18], 95.5% in experiment [19] and 84.4% in experiment [21].
For the compound `C/C(=C\COP(=O)(O)OP(=O)(O)O)COc1ccc(C(=O)c2ccccc2)cc1`, the inhibition turned out to be 12.5% in experiment [3]; 17.5% in experiment [4]; 37% with Micrococcus luteus [5]; 57% in experiment [7]; 23.4% in the experiment with Micrococcus luteus [8]; 24.5% in experiment [9]. The figures for the inhibition (in the experiment on Micrococcus luteus [18]; in [19]) were 8.8% and 27.6%, respectively. Moreover, the Relative activity in experiment [6] is 5.7; in experiment [12] it was 0.06.
On to `C/C(=C\COP(=O)(O)OP(=O)(O)O)COc1cccc(C(=O)c2ccccc2)c1`, for which the inhibition in experiment [3] amounted to 12.5%; in experiment [4] it was 22.5%; in the experiment with Micrococcus luteus [5], 10.6%; in experiment [7], 68%; in the experiment on Micrococcus luteus [8], 3.5%; in [22], 19.8%. Further, the inhibition in experiment [9] was 14.6%; with Micrococcus luteus [18], 3.1%. Further, the Relative activity turned out to be 0 in [6] and 0.22 in experiment [12].

These data come from ChEMBL document CHEMBL1130495, “Benzoylphenoxy analogs of isoprenoid diphosphates as photoactivatable substrates for bacterial prenyltransferases” (Bioorg Med Chem Lett, 1997).
